Measured values as given in PubChem BioAssay AID493059 (The Scripps Research Institute Molecular Screening Center, 2011).
Active and inactive are the calls of the source.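 The calls were made as follows: active = share of cells pushed into apoptosis exceeding a set limit, after 48 hr at 25 µM; inactive = the rest.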

The compounds below were run on 2B4 cells apoptosis, DAPI nuclear morphology (assay: pro-apoptotic activity by DAPI nuclear scoring – imaging, DAPI fluorescence, 2B4 cells, MCL1-BIM inhibitor project, late-stage follow-up (AID 493059)). Settings: not given.
For O=C(/C=C/c1ccc(Cl)c([N+](=O)[O-])c1)Nc1ccc(N2CCCC2)cc1, the outcome was “inactive”.
For Cc1ccc(C(=O)O)cc1-c1ccc(/C=C2\SC(=O)N(CC(=O)Nc3ccc4c(c3)OCO4)C2=O)o1, the outcome was “inactive”.
In the case of Cc1cc(NC(=O)Cc2cccs2)no1, the outcome is reported as “inactive”.

Same assay, conditions: at 25 µM; hits give high values
In the case of COC(=O)c1ccccc1NCc1cc(=O)oc2cc(O)c(O)cc12, the apoptosis is reported as 14% (inactive).
For O=C1COc2ccc(C(=O)COC(=O)/C=C/c3ccc(Br)o3)cc2N1, the apoptosis was 3.4% (inactive).
For O=C(NN=Cc1cccc(F)c1)c1cc(-c2ccco2)nc2ccccc12, the apoptosis was 3% (inactive).
c1ccc(CSc2nnc(-c3ccco3)c(-c3ccco3)n2)cc1 was tested, and the apoptosis was 14% (inactive).
For O=[N+]([O-])c1cc(CN2CCCC2)c2cccnc2c1O, the apoptosis was 1.7% (inactive).
In the case of C=CCn1c(SCC(=O)c2ccc(O)c(O)c2)nnc1-c1cccnc1, the apoptosis is reported as 3.5% (inactive).
In the case of COc1ccc(NC(=O)CN(C)C(=O)c2cc3c(s2)CCC3)cc1, the apoptosis is reported as 1.8% (inactive).
For Cc1c(Cl)cccc1NS(=O)(=O)c1ccc2c(c1)C1C=CCC1C(c1ccc(C(=O)O)cc1)N2 (stereo not drawn), the apoptosis was 0% (inactive).
With O=C(O)COc1ccccc1C(Nc1ccccn1)c1cc(Cl)c2cccnc2c1O (stereo not drawn) the apoptosis was 5.1% (inactive).
O=C(NN=Cc1ccc(-c2ccc(S(=O)(=O)Nc3ncccn3)cc2)o1)c1cc2ccccc2cc1O was tested, and the apoptosis was 18%.
CC(C)n1c(SCC(=O)Nc2nncs2)nnc1-c1ccco1 was tested, and the apoptosis was 0% (inactive).
Compound Nc1ccc(C(=O)NN=Cc2cc(N=Nc3cccc4ccccc34)ccc2O)cc1 has an apoptosis of 15%.
For COc1ccc(-n2cccc2/C=C2\C(=N)N3N=C(c4ccco4)SC3=NC2=O)cc1, the apoptosis was 3.7% (inactive).
In the case of Cc1cccc(NC(=O)CNC(=O)c2cccc(-n3cccc3)c2)c1C, the apoptosis is reported as 1.9% (inactive).
For COc1ccc(Cc2nnc(NC(=O)Cc3cccs3)s2)cc1OC, the apoptosis was 0% (inactive).
With CCOc1ccc(NC(=O)c2cccc(-n3cccc3)c2)cc1S(=O)(=O)N1CCOCC1 the apoptosis was 6.1% (inactive).
For c1coc(-c2nc(-c3ccco3)c(-c3ccco3)nc2-c2ccco2)c1, the apoptosis was 0% (inactive).
Work on C=CCN=c1scc(-c2ccco2)n1/N=C/c1ccc(O)c(O)c1O yielded an apoptosis of 98%.
With CCc1sc(C(C2C(=O)CC(C)(C)CC2=O)C2C(=O)CC(C)(C)CC2=O)cc1[N+](=O)[O-] the apoptosis was 3.5% (inactive).
For O=C(Cn1cnc2sc(-c3ccccc3)cc2c1=O)NCc1ccco1, the apoptosis was 3.6% (inactive).
